{"source": "patent US7763580B2", "about": "“Methods for treating conditions associated with the accumulation of excess extracellular matrix” (University of Utah Research Foundation, priority 1999, dated 2010)", "key": {"[1]": {"test_system": "anti-Thy 1 glomerulonephritis", "assay": "Immunofluorescent staining of glomerular fibronectin EDA+ and collagen I", "type": "in vivo, Sprague Dawley rats", "conditions": "enalapril alone", "protocol": "These experiments were performed on male Sprague Dawley rats (200-250 g) obtained from the Sasco colony of Charles River Laboratories (Wilmington, Mass., USA). Animal housing and care were in accordance with the NIH Guide for the Care and Use of Laboratory Animals, NIH Publication No. 85-23, 1985. Animals were fed a normal protein diet (22% protein, Teklad No. 86 550, Teklad Premier Laboratory Diets, Madison, Wis., USA). Glomerulonephritis was induced by tail vein injection of 2.25 mg/Kg of the monoclonal anti-Thy 1.1 antibody OX-7 (NCCC, Biovest International Inc, Minneapolis, Minn., USA). OX-7 binds to a Thy 1-like epitope on the surface of mesangial cells causing complement-dependent cell lysis followed by fibrotic tissue repair (Bagchus et al., Lab Invest. 55:680-687 (1986)). Control animals were injected with similar volumes of phosphate-buffered saline (PBS). […] The intensity of glomerular staining of collagen I and fibronectin was evaluated according to a 0 to 4 scale, which has been described in detail previously (Yamamoto et al., Kidney Int. 49:461-469 (1996)). The number of cells per glomerulus, staining positive for the monocyte/macrophage marker ED1, were counted. Thirty glomeruli per sample were evaluated. The mean values with standard error values were calculated. […] The percent reduction in disease severity in a treated group was calculated as: […]"}, "[2]": {"test_system": "Normal fetal human mesangial cells", "assay": "Renin-induced TGFβ production by fetal human mesangial cells (ELISA)", "type": "cell-based", "conditions": "10^−5 M inhibitor added at zero time with 10^−7 M human recombinant renin, FIG. 3", "protocol": "Normal fetal human mesangial cells (Clonetics Corp., Clonetics, Walkersville, Md.) passaged 5 to 8 times, were plated (3,000 cell/cm^2) in 12 well plates in 2 ml of medium (Mesangial Basal Medium (Clonetics Corp.) containing 5% FCS, 10 μg/ml penicillin and 100 μg/ml streptomycin) and allowed to grow to confluence for 48 hours at 37EC, 5% CO2. Cultures were washed three times using sterile phosphate buffered saline at room temperature and then 2 ml/well of serum free MBM medium to induce quiescence. After 48 hours, the serum-free medium was removed and 2 ml/well of fresh serum-free medium was added. Human recombinant renin (Hoffman-La Roche Ltd., Basel, Switzerland) in concentrations from 10^−6 to 10^−12 M was added to each well. A blank and 5 ng/ml of TGFβ (R & D Systems, Minneapolis, Minn.) were used as controls. Cells and supernatants were harvested by centrifugation after 24 hrs of culture and frozen at ^−70EC until analysis. The total production and release of TGFβ into the culture supernatant was measured using an ELISA kit (R & D Systems). Induction of PAI-1 and fibronectin in the supernatant are also measured using anti-PAI-1 and anti-fibronectin antibodies in an ELISA to provide further confirmation of the inhibition of TGFβ. TGFβ, fibronectin and PAI-1 mRNA are measured using semi-quantitative RT-PCR.\nRenin inhibitor Ro42-5892 (Hoffman-LaRoche, Basel, Switzerland), Losartan™ (Merck Pharmaceuticals, West Point, Pa.), Enalapril™ (Sigma Chemical Co., St. Louis, Mo., Prod. No. E6888), or TGFβ1 neutralizing antibody (R & D Systems) were added in the amounts indicated below to separate wells in triplicate to block the renin cascade at different sites after stimulation by renin: • 10^−5 M Renin Inhibitor R042-5892 (Hoffman-LaRoche) • 30 ng/ml Anti-TGFβ1 antibody (R & D Systems, #AB 101 NA) • 30 ng/ml Chicken IgG (control for anti-TGFβ1 antibody, R & D Systems, # AB 101 C) • 10^−5 M Enalapril™ (Sigma Chemical Co., St. Louis, Mo.) • 10^−5 M Losartan™ (Merck Pharmaceuticals, West Point, Pa.)\nThese inhibitors were added at zero time with 10^−7 M human recombinant renin (Hoffman-LaRoche)."}, "anti-Thy 1 model": {"test_system": "anti-Thy 1 model", "conditions": "monotherapy, anti-Thy 1 model (Peters et al.); L-arginine 1% in drinking water; cited from earlier work"}}}
{"smiles": "CCOC(=O)[C@H](CCc1ccccc1)N[C@@H](C)C(=O)N1CCC[C@H]1C(=O)O", "note": "[enalapril]", "values": [{"measurement": "reduction of collagen I immunostaining", "setting": "[1]", "value": 33, "unit": "%"}, {"measurement": "reduction of fibronectin immunostaining", "setting": "[1]", "value": 36, "unit": "%"}, {"measurement": "renin-induced increase in TGFβ production", "setting": "[2]", "value": "does not reduce the renin-induced increase in TGFβ production"}, {"measurement": "reduction of markers of fibrotic disease", "setting": "anti-Thy 1 model", "value": "about 50%"}]}
